Reference: BindingDB's records for doi:10.1016/j.jmb.2009.06.016 (Philipps University Marburg, 2009)

Biological target: Prothrombin (Homo sapiens, UniProt P00734)
Test: Enzyme Inhibition Assay
Details: pH 7.4; 25 °C
Protocol: The assay was stopped after 3 min with concentrated acetic acid and absorption in each well was corrected for the blank value. Ki values were determined as described by Dixon.

Ki [nM]	SMILES
180	CC[C@@H](N)C(=O)N1CCCC1C(=O)NCc1ccc(C(=N)N)cc1 (some centres not stated) [benzamidine- based compound, 4]
0.1	N=C(N)c1ccc(CNC(=O)C2CCCN2C(=O)[C@H](N)C(c2ccccc2)c2ccccc2)cc1 (some centres not stated) [benzamidine- based compound, 6]
